# Experimental data taken from patent US20110200549A1, “Organic Compounds Suitable For Modulating Fragrance Compositions” (priority 2008, published 2011).
# Columns and labels:
# [1] = molecular target: T1, CYP2A13 (Homo sapiens, UniProt Q16696); test: CYP2A13 inhibition, coumarin 7-hydroxylation (Umbelliferone fluorescence) in microsomes; assay type: biochemical; conditions: recombinant CYP2A13 + P450 reductase microsomes, coumarin 0.006 mM, 60 min at 37° C.; read-out: CYP2A13 inhibitor activity IC50
# T1 construct: made in house; host or cells: Sf9 insect cells, recombinant baculovirus
# T1 sequence (Q16696 1-494): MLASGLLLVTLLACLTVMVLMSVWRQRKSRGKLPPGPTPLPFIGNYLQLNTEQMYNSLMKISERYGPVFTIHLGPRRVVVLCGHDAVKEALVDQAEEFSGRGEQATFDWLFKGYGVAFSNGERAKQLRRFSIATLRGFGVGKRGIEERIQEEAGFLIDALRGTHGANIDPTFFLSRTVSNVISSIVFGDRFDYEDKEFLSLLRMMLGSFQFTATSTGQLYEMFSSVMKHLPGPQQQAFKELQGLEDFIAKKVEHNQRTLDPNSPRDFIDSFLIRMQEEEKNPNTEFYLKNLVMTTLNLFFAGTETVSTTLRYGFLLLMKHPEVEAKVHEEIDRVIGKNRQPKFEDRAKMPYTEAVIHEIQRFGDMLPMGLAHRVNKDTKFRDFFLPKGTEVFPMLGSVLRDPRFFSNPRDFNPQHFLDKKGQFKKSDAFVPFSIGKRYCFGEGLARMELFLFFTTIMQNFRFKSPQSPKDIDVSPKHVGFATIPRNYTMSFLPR
# Method: Compounds that inhibit the activity of CYP2A13 are identified by using a standard reaction established for the enzyme. A known substrate is coumarin, and the product of the enzymatic reaction is 7-hydroxy-coumarin (Umbelliferone) which is strongly fluorescent. When a compound is added to the standard reaction and the formation of Umbelliferone is decreased, the compound is identified as an inhibitor, which can also be a competitive substrate of the enzyme. The compound is used at various concentrations and the concentration-dependent decrease in Umbelliferone formation allows to determine the concentration where the activity of the enzyme is reduced to the 50% level (IC50 value).
# A test compound (details see Table 1) was incubated with CYP2A13 in the presence of a cytochrome P450 reductase. CYP2A13 and P450 reductase were employed in form of microsomes. CYP2A13 was produced in Sf9 cells using a recombinant baculovirus, under conditions known to the person skilled in the art, for example, as described in WO 2006/007751. P450 reductase is commercially available (BD Biosciences Gentest, USA). Preferably, the two enzymes are coexpressed in the same insect cells and microsomes prepared which contain both enzymes. The art of coexpression of two enzymes is known, and the coexpression CYP2A13 and P450 reductase is described in WO 2006/007751. […] An MOI of 4 for recombinant CYP2A13 baculovirus combined with an MOI of 3.5 for recombinant P450 reductase baculovirus routinely produced microsomes with considerable activity.
# Microsomes were used which contained 7 pmoles CYP2A13. Tris buffer (1 M, pH 7.6) and water were added to give a buffer concentration of 0.1M. The test compound was prepared as a 50 mM stock solution in acetonitrile. The concentration of the standard substrate coumarin was 0.006 mM. Several samples of the test compound were prepared at various concentrations to give different final concentrations in the reaction: 0, 0.005, 0.01, 0.02, 0.05, 0.1 and 0.2 mM. The mixture was incubated for 10 min at 37° C. prior to the initiation of the enzymatic reaction by the addition of 0.005 ml of a solution of 50 mM NADPH in water. The final total volume was 0.2 ml, which is suitable for microtiter plate measurements. The samples were incubated for 60 min at 37° C. After 60 min, the enzymatic reaction was stopped by the addition of 0.02 ml cold 50% trichloroacetic acid (TCA) and incubated at 4° C. for 15 min. 0.005 ml of a solution of 50 mM NADPH in water was added to the control reaction which corresponds to the reaction without test compound and without NADPH, and as a consequence, no Umbelliferone was formed. Denatured proteins and other insoluble parts were separated by centrifugation (10 min, 560×g, room-temperature).
# The samples were analysed spectrofluorometrically which allows to detect the formation of Umbelliferone as the enzymatic product of coumarin at an excitation wavelength of 340 nm and an emission wavelength of 480 nm.
# [2] = molecular target: T2, CYP2B6 (Homo sapiens, UniProt P20813); test: CYP2B6 inhibition, 7-ethoxy-4-trifluoromethyl-coumarin fluorescence assay in microsomes; assay type: biochemical; conditions: CYP2B6 + P450 reductase microsomes, 7-ethoxy-4-trifluoromethyl-coumarin 6 μM, 40 min at 37° C.; read-out: CYP2B6 inhibitor activity IC50
# T2 construct: made in house; host or cells: Sf9 insect cells, recombinant baculoviruses, coexpressed with P450 reductase
# T2 sequence (P20813 1-491): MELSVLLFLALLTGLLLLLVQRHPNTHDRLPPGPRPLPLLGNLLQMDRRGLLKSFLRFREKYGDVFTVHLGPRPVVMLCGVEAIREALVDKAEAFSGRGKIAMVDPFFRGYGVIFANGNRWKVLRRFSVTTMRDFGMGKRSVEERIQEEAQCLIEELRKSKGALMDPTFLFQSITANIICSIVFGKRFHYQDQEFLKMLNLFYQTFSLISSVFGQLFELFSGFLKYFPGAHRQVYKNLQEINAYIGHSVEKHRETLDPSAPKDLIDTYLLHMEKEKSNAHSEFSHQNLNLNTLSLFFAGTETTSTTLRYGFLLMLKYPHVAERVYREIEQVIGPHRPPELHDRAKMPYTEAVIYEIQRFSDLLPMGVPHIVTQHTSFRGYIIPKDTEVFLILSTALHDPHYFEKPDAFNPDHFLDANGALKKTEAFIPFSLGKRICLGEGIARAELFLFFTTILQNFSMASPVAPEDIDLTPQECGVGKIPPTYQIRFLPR
# Method: Test compounds that inhibit the activity of CYP2B6 are identified by using the same principle as described in Example 42, first paragraph.
# A test compound (details see Table 2) was incubated with CYP2B6 in the presence of a cytochrome P450 reductase. CYP2B6 and P450 reductase are produced using recombinant baculoviruses and co-expressing the two proteins in Sf9 insect cells as described in Example 42. Alternatively, microsomes containing CYP2B6 and the reductase are commercially available (BD Biosciences Gentest, USA). Microsomes were used which contained 1.5 pmoles CYP2B6. Potassium phosphate buffer final concentration was 100 mM, (1M stock, pH 7.4). The test compound was prepared as a 50 mM stock solution in acetonitrile. The concentration of the standard substrate 7-ethoxy-4-trifluoromethyl-coumarin was 6 μM. Several samples of the test compound were prepared at various concentrations to give different final concentrations in the reaction: 0, 0.005, 0.01, 0.02, 0.05, 0.1 and 0.2 mM. […] The final total volume was 0.2 ml, which is suitable for microtiter plate measurements. The samples were incubated for 40 min at 37° C. After 40 min, the enzymatic reaction was stopped by the addition of […] 0.5M Tris-base/acetonitrile (18:72). 0.005 ml of a solution of 50 mM NADPH in water was added to the control reaction which corresponds to the reaction with test compound and enzyme but without NADPH, and as a consequence, no 4-trifluoromethyl-umbelliferone was formed. Denatured proteins and other insoluble parts were separated by centrifugation (5 min, 1800 rpm, at 10° C.).
# The samples were analysed spectrofluorometrically which allows to detect the formation of 4-trifluoromethyl-umbelliferone as the enzymatic product at an excitation wavelength of 410 nm and an emission wavelength of 510 nm.
# [3] = Sensory panel study with olfactometer (Virtual Aroma Synthesizer): modulation of a fragrance accord by the inhibitor; design: species or system human; conditions: 10-ingredient fragrance accord with vs without inhibitor, random order, panelists
# Method: For each panelist, the inhibitor was tested by itself and confirmed that it was rated as being odorless at the given concentration.
# Sensory studies are performed using an olfactometer, such as the Virtual Aroma Synthesizer (VAS) which is described in Chimia (2001) 55:401-405. The instrument allows to combine saturated headspace of different samples from different containers at various dilutions in order to determine the effect on the odor of the mixture produced in headspace. For the particular example, in one container the fragrance accord (1 gram) was adsorbed on beads (4 grams) and in another container the inhibitor N-(cyclopropylmethyl)-N-pentylacetamide was adsorbed on beads (4 grams).
# Panelists were selected having different levels of experience and expertise in smelling, rating, describing and evaluating odorants, accords and perfumes. Panelists smelled the accord with or without the inhibitor at random order, not knowing which one was presented. Before and after the session, it was confirmed that the inhibitor alone was odorless.
Structure (SMILES),IC50 [1] [µM],IC50 [2] [µM],Effect on the odor of the fragrance accord attributed to the presence of the inhibitor [3]
"CCCCC/C(=C\c1ccccc1)C(=O)N(C)C [Ex. 39, (E)-2-benzylidene-N,N-dimethylheptanamide]",3,,
"CCCCCN(Cc1ccccc1)C(=O)OC [Ex. 29, methyl benzyl(pentyl)carbamate]",1.6,20,
"CCCCCN(C=O)CC1CC1 [Ex. 36, N-(cyclopropylmethyl)-N-pentylformamide]",1.3,49,
"CCCCCN(Cc1ccccn1)C(=O)OC [Ex. 23, methyl pentyl(pyridin-2-ylmethyl)carbamate]",20,,
"CCCCCN(Cc1ccccn1)C(C)=O [Ex. 22, N-pentyl-N-(pyridin-2-ylmethyl)acetamide]",10,,
"CCCCCN(CCc1ccccc1)C(C)=O [Ex. 3, N-pentyl-N-phenethylacetamide]",2,93,
"CCCCCN(CCc1cccnc1)C(C)=O [Ex. 18, N-pentyl-N-(2-(pyridin-3-yl)ethyl)acetamide]",25,,
"CCCCCN(C(C)=O)C(=O)C1CC1 [Ex. 33, N-acetyl-N-pentylcyclopropanecarboxamide]",0.7,17,
"CCCCCN(CC1CC1)C(=O)OC [Ex. 11, methyl cyclopropylmethyl(pentyl)carbamate]",3,28,
"CCCCCN(Cc1ccncc1)C(C)=O [Ex. 8, N-pentyl-N-(pyridin-4-ylmethyl)acetamide]",11,,
"CCCCCN(CCc1ccncc1)C(C)=O [Ex. 20, N-pentyl-N-(2-(pyridin-4-yl)ethyl)acetamide]",13,19,
"CCCCCN(C(C)=O)c1ccccc1 [Ex. 2, N-pentyl-N-phenylacetamide]",0.5,46,
"CCCCCN(CC1CC1)C(C)=O [Ex. 10, N-(cyclopropylmethyl)-N-pentylacetamide]",0.5,87,intensifying or boosting the fruitiness of the accord
"CCCCCN(Cc1cccnc1)C(=O)OC [Ex. 5, methyl pentyl(pyridin-3-ylmethyl)carbamate]",22,,
"CCCCCN(Cc1ccncc1)C(=O)OC [Ex. 9, methyl pentyl(pyridin-4-ylmethyl)carbamate]",17,,
"CCCCCN(CCc1ccccn1)C(=O)OC [Ex. 17, methyl pentyl(2-(pyridin-2-yl)ethyl)carbamate]",44,,
"CCCCCN(CCc1c[nH]cn1)C(C)=O [Ex. 27, N-(2-(1H-imidazol-4-yl)ethyl)-N-pentylacetamide]",34,2.5,
"CCCCCN(CCc1ccncc1)C(=O)OC [Ex. 21, methyl pentyl(2-(pyridin-4-yl)ethyl)carbamate]",2,,
"CCCCCN(C(C)=O)C(=O)OC(C)(C)C [Ex. 34, tert-butyl acetyl(pentyl)carbamate]",1.5,11,
"CC(=O)N(CCc1ccccc1)Cc1ccccc1 [Ex. 35, N-benzyl-N-phenethylacetamide]",52,,
"CCCCCN(Cc1ccccc1)C(C)=O [Ex. 1, N-benzyl-N-pentylacetamide]",0.3,72,

# Further compounds by falling IC50 [1], results first:
IC50 [1] [µM],IC50 [2] [µM],Structure (SMILES),Effect on the odor of the fragrance accord attributed to the presence of the inhibitor [3]
47,,"CCCCCN(CCc1c[nH]cn1)C(=O)OC [Ex. 28, methyl 2-(1H-imidazol-4-yl)ethyl(pentyl)carbamate]",
41,,"CCCCCN(CCc1cccnc1)C(=O)OC [Ex. 19, methyl pentyl(2-(pyridin-3-yl)ethyl)carbamate]",
24,,"CCCCCN(CCc1ccccn1)C(C)=O [Ex. 16, N-pentyl-N-(2-(pyridin-2-yl)ethyl)acetamide]",
15,,"CCCCCN(Cc1cccnc1)C(C)=O [Ex. 4, N-pentyl-N-(pyridin-3-ylmethyl)acetamide]",
9,,"CCCCC/C(=C\C1CC1)C(=O)N(C)C [Ex. 40, (E)-2-(cyclopropylmethylene)-N,N-dimethylheptanamide]",
8,,"CCCCN(Cc1ccccc1)C(C)=O [Ex. 6, N-benzyl-N-butylacetamide]",
1.1,,"CCCCC/C(=C\C1CC1)C(N)=O [Ex. 41, (E)-2-(cyclopropylmethylene)heptanamide]",
0.8,,"CCCCC/C(=C\C1CC1)C(=O)NC [Ex. 38, (E)-2-(cyclopropylmethylene)-N-methylheptanamide]",
0.5,,"CCCCC/C(=C\c1ccccc1)C(=O)NC [Ex. 37, (E)-2-benzylidene-N-methylheptanamide]",
